In patent US20230092679A1, “MCL-1 INHIBITOR ANTIBODY-DRUG CONJUGATES AND METHODS OF USE” (NOVARTIS AG, priority 2019, published 2023):

What was measured:
KMS21 BM cells [1] = experiment: Cell viability CTG assay, anti-CD46-Mcl-1 ADC (Example 14); assay type: cell-based; details: 72h
Experimental: KMS21 BM cells were cultivated in RPM11640 supplemented with 10% heat inactivated fetal bovine serum, penicillin (100 IU/ml), streptomycin (100 μg/ml) and L-glutamine (2 mM), at 37° C. in a humidified atmosphere containing 5% CO2. KMS21 BM cells were seeded in 96 microwell plates and exposed to the ADCs for 72h (3.16 fold serially diluted; 9 concentrations each, triplicates). […] All the conditions were tested in triplicates. Luminescence was quantified on a multipurpose plate reader. IC50s (Table 33) were calculated using standard four-parametric curve fitting. […] Each experiment was performed at least twice, with results being reproducible.

KMS21 BM cells [2] = experiment: CTG cell viability assay, KMS21 BM cells; assay type: cell-based; details: FIG. 18
Experimental: Cell viability may also be measured, e.g., by quantifying ATP, an indicator of metabolically active cells. In some embodiments, in vitro potency and/or cell viability of prepared ADCs or Mcl-1 inhibitor compounds may be assessed using a CellTiter-Glo® (CTG) cell viability assay, as described in the examples provided herein. In this assay, in some embodiments, the single reagent (CellTiter-Glo® Reagent) is added directly to cells cultured in serum-supplemented medium. The addition of reagent results in cell lysis and generation of a luminescent signal proportional to the amount of ATP present. The amount of ATP is directly proportional to the number of cells present in culture

COc1ccccc1-c1nccc(COc2ccccc2C[C@@H](Oc2ncnc3sc(-c4ccc(F)cc4)c(-c4ccc(OCCN5CCN(C)CC5)c(Cl)c4C)c23)C(=O)O)n1 [C1, (2R)-2-[(5Sa)-5-[3-chloro-2-methyl-4-[2-(4-methylpiperazin-1-yl)ethoxy]phenyl]-6-(4-fluorophenyl)thieno[2,3-d]pyrimidin-4-yl]oxy-3-[2-[[2-(2-methoxyphenyl)pyrimidin-4-yl]methoxy]phenyl]propanoic acid]
viability of KMS21 BM cells in CTG assay, in words (KMS21 BM cells [1]; FIG. 18): dose dependent decrease in the viability
IC50 (KMS21 BM cells [1]; KMS-21BM, KMS21BM cell line, CTG): 2.31 nM
viability of KMS21 BM cells (KMS21 BM cells [2]): dose dependent decrease in the viability
